{"source": "patent US9095514B2", "about": "“Pharmaceutical composition” (SUN PHARMA ADVANCED RESEARCH COMPANY LTD., priority 2009, dated 2015)", "origin": "cited, not measured here"}
{"smiles": "CC(C)C[C@H](NC(=O)[C@H](Cc1ccccc1)NC(=O)c1cnccn1)B(O)O", "note": "[Bortezomib, N-(2-pyrazine) carbonyl-L-phenylalanine-L-leucine boronic acid]", "values": [{"measurement": "stability in certain solvents", "setting": "Sara Wu et al J. Pharm. Sci 89", "result": "quite unstable"}, {"measurement": "solubility of solid bortezomib", "setting": "at 1 mg/ml in 0.9% w/v of sodium chloride", "result": "not soluble"}, {"measurement": "not stable for longer than", "setting": "stored at 2° C.-8° C., U.S. Pat. No. 6,713,446", "result": "3-6 months"}, {"measurement": "stable for (HPLC purity>97%)", "setting": "stored at −2° C. to −20° C., U.S. Pat. No. 6,713,446", "result": "more than 2 years"}]}
